The experiment deals with Heat shock protein HSP90 (Homo sapiens, UniProt P07900+P08238). Nature of the experiment: Inhibition of HSP90 (unknown origin).

This note sets out measurements from ChEMBL document CHEMBL3862038, “When Does Chemical Elaboration Induce a Ligand To Change Its Binding Mode?” (J Med Chem, 2017).

What is called Kd is a measure of binding affinity in units of concentration. Low values mean tighter binding, high ones weaker binding.

For the molecule `COc1cccc(C(=O)NC2CCC3CCC(C2)N3c2ccc(C(=O)NCc3ccccc3)cc2)c1C` (stereo unspecified), the Kd came to 800 µM.
